A short description of series [1]: Anticancer activity against human Panel (56 tumour cell lines) at 10 uM relative to control. In kind it is functional.
Series [2] concerns MCF7. Put plainly: Anticancer activity against human MCF7 cells assessed as reduction in cell viability. In kind it is functional, cell-based.
In the next series the test system is HepG2. Put plainly: Anticancer activity against human HepG2 cells assessed as reduction in cell viability. In kind it is functional, cell-based.
Another series deals with WI-38. Put plainly: Cytotoxicity against human WI-38 cells assessed as reduction in cell growth. In kind it is functional, cell-based.
In series [3] the test system is MCF7. Put plainly: Cytotoxicity against human MCF7 cells assessed as reduction in cell growth. In kind it is functional, cell-based.
The subject of series [4] is MCF7. Put plainly: Growth inhibition of human MCF7 cells assessed as reduction in cell viability by SRB assay. In kind it is functional.
For the next series, the system named is COLO 205. Put plainly: Growth inhibition of human COLO 205 cells assessed as reduction in cell viability by SRB assay. In kind it is functional.
The test system of a further series is PC-3. Put plainly: Growth inhibition of human PC-3 cells assessed as reduction in cell viability by SRB assay. In kind it is functional. (In general: The SRB assay estimates cell density from bound dye.)
In a further series the test system is FaDu. Put plainly: Anticancer activity against human FaDu cells. In kind it is functional, cell-based.
The test system of series [5] is HeLa. Put plainly: Antiproliferative activity against human HeLa cells incubated for 72 hrs by MTT assay. In kind it is functional, cell-based. (Formazan colour is commonly taken as a measure of viable cells.)
Series [6] has as its system A549. Put plainly: Antiproliferative activity against human A549 cells incubated for 72 hrs by MTT assay. In kind it is functional, cell-based. Particulars: A549, 72 h.
In the next series the test system is Caco-2. Put plainly: Antiproliferative activity against human Caco-2 cells incubated for 72 hrs by MTT assay. In kind it is functional, cell-based. The settings on record: Caco-2, 72 h.
For series [7], the system named is MCF7. Put plainly: Antiproliferative activity against human MCF7 cells incubated for 72 hrs by MTT assay. Particulars: MCF7, 72 h. In kind it is functional, cell-based.
A further series has as its system CCRF-CEM. Put plainly: Antiproliferative activity against human CEM cells incubated for 72 hrs by MTT assay. In kind it is functional, cell-based.
A further series relates to Jurkat. Put plainly: Antiproliferative activity against human Jurkat cells incubated for 72 hrs by MTT assay. In kind it is functional, cell-based.
The test system of series [8] is MDA-MB-231. Put plainly: Antiproliferative activity against human MDA-MB-231 cells incubated for 72 hrs by MTT assay. The settings on record: MDA-MB-231, 72 h. In kind it is functional, cell-based.
Another series deals with HCT-116. Put plainly: Antiproliferative activity against human HCT-116 cells incubated for 72 hrs by MTT assay. In kind it is functional, cell-based. The settings on record: HCT-116, 72 h.
The subject of another series is L929. Put plainly: Cytotoxicity against mouse L929 cells at 50 ug/ml relative to control. In kind it is toxicity, cell-based. Particulars: at 50 µg/mL.
Series [9] relates to MDA-MB-231. Put plainly: Cytotoxicity against human MDA-MB-231 cells at 50 ug/ml relative to control. In kind it is functional. Particulars: dose 50 µg/ml.
For series [10], the system named is HeLa. Put plainly: Cytotoxicity against human HeLa cells assessed as reduction in cell viability. In kind it is functional, cell-based.
The subject of series [11] is MCF7. Put plainly: Cytotoxicity against human MCF7 cells assessed as reduction in cell viability. In kind it is functional, cell-based.
Series [12] deals with Panel NCI-60 (60 carcinoma cell lines). Put plainly: Growth inhibition of human Panel NCI-60 (60 carcinoma cell lines) cells. In kind it is functional.
A further series concerns K562. Put plainly: Antiproliferative activity against human K562 cells measured upto 72 hrs by microscopy based analysis. In kind it is functional, cell-based. The settings on record: K562, 72 h.
The next series has as its system U-937. Put plainly: Antiproliferative activity against human U-937 cells measured upto 72 hrs by microscopy based analysis. In kind it is functional, cell-based. The settings on record: U-937, 72 h.
Series [13] concerns MDA-MB-231. Put plainly: Antiproliferative activity against human MDA-MB-231 cells assessed as cell growth inhibition. In kind it is functional, cell-based.
Series [14] relates to MCF7. Put plainly: Antiproliferative activity against human MCF7 cells assessed as cell growth inhibition. In kind it is functional, cell-based.
Series [15] in a line: Cytotoxicity against HEK293T cells incubated for 72 hrs by MTT assay. Particulars: human. In kind it is toxicity, cell-based, HEK-293T.
The nature of series [16]: Cytotoxicity against human VA13 cells incubated for 72 hrs by MTT assay. In kind it is toxicity, cell-based. Particulars: VA13 (WI-38 VA13) cells.
Series [17] relates to MCF7. Put plainly: Cytotoxicity against human MCF7 cells incubated for 72 hrs by MTT assay. In kind it is functional, cell-based. Particulars: MCF7, 72 h.
For series [18], the system named is A549. Put plainly: Cytotoxicity against human A549 cells incubated for 72 hrs by MTT assay. Particulars: A549, 72 h. In kind it is functional, cell-based.
In another series the test system is HT-29. Put plainly: Antiproliferative activity against human HT-29 cells assessed as inhibition of cell growth. In kind it is functional, cell-based.
In the next series the test system is A2780. Put plainly: Antiproliferative activity against human A2780 cells assessed as inhibition of cell growth. In kind it is functional, cell-based.
In series [19] the test system is MCF7. Put plainly: Antiproliferative activity against human MCF7 cells assessed as inhibition of cell growth. In kind it is functional, cell-based.
Series [20] deals with MCF7. Put plainly: Cytotoxicity against human MCF7 cells by MTT assay. In kind it is functional, cell-based.
The subject of series [21] is MDA-MB-231. Put plainly: Cytotoxicity against human MDA-MB-231 cells by MTT assay. In kind it is functional, cell-based.
For another series, the system named is HBL. Put plainly: Cytotoxicity against human HBL cells by MTT assay. In kind it is functional, cell-based.
Another series has as its system Erythrocyte. Put plainly: Cytotoxicity against human Erythrocyte by MTT assay. In kind it is functional, cell-based.
Series [22] concerns A549. Put plainly: Cytotoxicity against human A549 cells by MTT assay. In kind it is functional, cell-based.
Series [23] is described as follows: Anticancer activity against […] 3T3 cells. Particulars: NIH3T3. In kind it is functional, cell-based.
For series [24], the system named is HeLa. Put plainly: Anticancer activity against human HeLa cells assessed as inhibition of cell viability. In kind it is functional, cell-based.

≈ marks a conversion by molar mass, not a printed value.

The term inhibition denotes the change of the read-out against control, counted positive when it falls. The low end stands for little suppression, the high end for strong suppression. As for `CC(C)(C)OC(=O)N1CCC2(CC1)NC(=O)c1ccccc1N2`, the inhibition at 10 µM in series [1] is 100%.
What is called IC50 is the concentration that inhibits the measured activity by half. As to `N#Cc1c(N)nc2c(c1-c1ccc(Cl)cc1)SC1(CCCCC1)N2c1ccc(N)cc1`, the concentration for half-maximal inhibition (IC50) with MCF7 [2] turned out to be 30 µg/mL (≈ 67 µM); in the series on HepG2 it was 14.3 µg/mL (≈ 31.9 µM).
As for `CN1N=C(c2ccc(Cl)c(Cl)c2)C2C(CSC23CCCN3CCOCC(=O)NN)C1=O` (configuration not stated), the half-inhibitory concentration (IC50) worked out at 10.4 µM in the series on WI-38 and 7.72 µM with MCF7 [3].
The term GI50 denotes the concentration at which growth is held to half of that of the control. Take `CCOP1(=O)N(CC)N=NC12SC1=CCCCC1=C2C#N` (configuration not stated): the 50% growth inhibitory concentration (GI50) in the series on MCF7 [4] came to 5.03 µM; with COLO 205, 17.8 µM; with PC-3, 9.97 µM.
For the molecule `O=C1/C(=C/c2ccccc2)CN(/C=C/c2ccccc2)C[C@@]12[C@H](c1ccccc1)[C@@H](Cc1ccccc1)N[C@]21C(=O)Nc2ccccc21`, 19 µM corresponded to half-maximal inhibition with FaDu (IC50).
With `CON1c2ccccc2[C@@]2(CN=C(Nc3cc(C(F)(F)F)cc(C(F)(F)F)c3)S2)[C@@H]1Nc1cc(C(F)(F)F)cc(C(F)(F)F)c1`, the half-inhibitory concentration (IC50) in the series on HeLa [5] stood at 3 µM; with A549 [6], 2 µM; in the series with Caco-2, 47 µM; with MCF7 [7] it was 2 µM; with CCRF-CEM, 5 µM; in the series on Jurkat it was 2 µM. For the same molecule, the concentration for half-maximal inhibition (IC50) was found to be 4 µM with MDA-MB-231 [8] and 65.1 µM in the series with HCT-116.
As to `CN1CCN(Cc2ccc([N+](=O)[O-])cc2)P12=NP(N1CCCC1)(N1CCCC1)=NP(N1CCCC1)(N1CCCC1)=N2` (configuration not stated), the Activity with L929 was 70%; in the series on MDA-MB-231 [9], 30%.
On to `Cc1ccc2[nH]c3c(c2c1)CC1(C3=O)C(c2ccc(F)cc2)C2CSCN2C12C(=O)Nc1ccccc12` (configuration not stated), for which the half-inhibitory concentration (IC50) came to 79 µM in the series with HeLa [10] and 19.4 µM in the series on MCF7 [11].
Turning to `COC1=CC2OC34Oc5cc(OC)ccc5C=C3CCCC4C=C2C=C1` (configuration not stated), the GI50 in series [12] is below 19 µM.
In the case of `CC1=CC(=O)C2(C(=O)O1)C(c1ccc(C(C)(C)C)cc1)CC(=O)CC2c1ccc(C(C)(C)C)cc1` (configuration not stated), the half-inhibitory concentration (IC50) was found to be 58.6 µM in the series on K562 and 43.7 µM in the series with U-937.
Take `O=C1N(C2CCCCC2)C(=O)C2(CC(c3ccccc3O)=NCCO2)N1C1CCCCC1` (configuration not stated): the concentration for half-maximal inhibition (IC50) in the series on MDA-MB-231 [13] was 97.1 µM; in the series with MCF7 [14], 66.3 µM.
With `CN1C[C@H](c2ccc(Cl)cc2)[C@]2(NC(=O)NC2=O)C12C(=O)Nc1ccc(Br)cc12` (some centres not stated), the results for the IC50 at 72 h in series [15] and in [16] were 9.2 µM and 11.9 µM, respectively. In addition, the IC50 was 24.1 µM with MCF7 [17] and 6.6 µM in the series with A549 [18].
Regarding `O=C1CC2(CCN(S(=O)(=O)c3cccc4ccccc34)CC2)Oc2ccccc21`, the half-maximal inhibitory concentration (IC50) in the series with HT-29 was found to be 0.69 µM; in the series with A2780, 0.316 µM; in the series with MCF7 [19], 6.02 µM.
In the case of `N#Cc1c(-c2ccc(Cl)cc2)c2c(n(CC(=O)O)c1=O)N(c1ccc(N)cc1)C1(CCCCC1)S2`, the half-maximal inhibitory concentration (IC50) worked out at 12.6 µg/mL (≈ 24.9 µM) in the series with MCF7 [2] and 9.29 µg/mL (≈ 18.3 µM) in the series with HepG2.
Turning to `COP1(=O)N(C)N=NC12SC1=CCCCC1=C2C#N` (configuration not stated), the GI50 is 6.35 µM with MCF7 [4], 18.4 µM in the series with COLO 205 and 12.4 µM with PC-3.
As for `Cc1ccc2c(c1)C1(CC(=O)C=NO1)C(=O)N2` (configuration not stated), the half-maximal inhibitory concentration (IC50) in the series on MCF7 [20] is above 30 µM; in the series with MDA-MB-231 [21] it was 0.34 µM; with HBL, above 100 µM; with Erythrocyte, above 100 µM; in the series on A549 [22], 13.2 µM.
In the case of `O=C1N(c2ccccc2)C(=O)C2(CC(c3ccccc3O)=NO2)N1C1CCCCC1` (configuration not stated), the half-inhibitory concentration (IC50) in the series with MDA-MB-231 [13] was found to be 67.9 µM; in the series with MCF7 [14], 42.3 µM.
Take `O=C(c1ccc(F)cc1)C1C(c2ccc(Cl)cc2Cl)C2CSCN2C12C(=O)Nc1ccccc12` (configuration not stated): the IC50 in [23] turned out to be 21.2 µM; in the series on HeLa [24], 11.2 µM.

These data come from ChEMBL document CHEMBL5233269, “Anticancer potential of spirocompounds in medicinal chemistry: A pentennial expedition” (Eur J Med Chem, 2021).
